Source: ChEMBL document CHEMBL1132968, “Substituent effects on the antibacterial activity of nitrogen-carbon-linked (azolylphenyl)oxazolidinones with expanded activity against the fastidious gram-negative organisms Haemophilus influenzae and Moraxella catarrhalis” (2000)
In brackets after ≈: the same amount, converted by molar mass.

Key:
Format in all cases: functional
Enterococcus faecalis = experiment: Inhibitory activity against Enterococcus faecalis UC9217
Haemophilus influenzae = experiment: Inhibitory activity against Haemophilus influenzae UC30063
Moraxella catarrhalis = experiment: Inhibitory activity against Moraxella catarrhalis UC30610
Streptococcus pneumoniae = experiment: Inhibitory activity against Streptococcus pneumoniae UC9912
[1] = system: Staphylococcus epidermidis; experiment: Inhibitory activity against Methicillin-resistant Staphylococcus epidermidis UC12084
Staphylococcus aureus [2] = experiment: Inhibitory activity against Methicillin-resistant Staphylococcus aureus UC6685
Staphylococcus aureus [3] = experiment: Inhibitory activity against Methicillin-susceptible Staphylococcus aureus UC9213
Mus musculus [4] = experiment: Dose required to cure 50% of Staphylococcus aureus infected mice in the presence of eperezolid when administered orally;vlaue ranges from 1.9-6.6; settings: po
Mus musculus [5] = experiment: Dose required to cure 50% of Staphylococcus aureus infected mice when administered orally administered; settings: po
Mus musculus [6] = experiment: Dose required to cure 50% of Staphylococcus aureus infected mice when administered orally; settings: po
Mus musculus [7] = experiment: Dose required to cure 50% of Staphylococcus aureus infected mice in the presence of eperezolid when administered orally; settings: po
Mus musculus [8] = experiment: Dose required to cure 50% of Staphylococcus aureus infected mice in the presence of vancomycin when orally administered; settings: po
Mus musculus [9] = experiment: Dose required to cure 50% of Staphylococcus aureus infected mice when orally administered; value ranges from 7.9-32.5; settings: po
Mus musculus [10] = experiment: Dose required to cure 50% of Staphylococcus aureus infected mice in the presence of eperezolid when orally administered.; settings: po
Mus musculus [11] = experiment: Dose required to cure 50% of Staphylococcus aureus infected mice when administered orally;; settings: po
Mus musculus [12] = experiment: Dose required to cure 50% of Staphylococcus aureus infected mice in the presence of eperezolid when administered orally; value ranges from 4.0-26.7; settings: po
Mus musculus [13] = experiment: Dose required to cure 50% of Staphylococcus aureus infected mice in the presence of eperezolid when administered orally; value ranges from 2.9-7.1); settings: po
Mus musculus [14] = experiment: Dose required to cure 50% of Staphylococcus aureus infected mice when administered orally; value ranges from 5.7-14.5; settings: po
Mus musculus [15] = experiment: Dose required to cure 50% of Staphylococcus aureus infected mice when orally administered; value ranges from 4.3-13.3; settings: po
Mus musculus [16] = experiment: Dose(orally administered) required to cure 50% of Staphylococcus aureus infected mice in the presence of eperezolid when orally administered; value ranges from 2.2-6.1; settings: po
Mus musculus [17] = experiment: Dose required to cure 50% of Staphylococcus aureus infected mice in the presence of vancomycin when administered orally; value ranges from 1.43-3.5; settings: po
Mus musculus [18] = experiment: Dose required to cure 50% of Staphylococcus aureus infected mice when administered orally; value ranges from 5.5-22.1; settings: po
Mus musculus [19] = experiment: Dose(orally administered) required to cure 50% of Staphylococcus aureus infected mice in the presence of eperezolid when administered orally; value ranges from 0.8-2.3; settings: po
Mus musculus [20] = experiment: Dose required to cure 50% of Staphylococcus aureus infected mice when administered orally.; settings: po
Mus musculus [21] = experiment: Dose required to cure 50% of Staphylococcus aureus infected mice in the presence of vancomycin when administered orally; value ranges from 2.5-6.4; settings: po
Mus musculus [22] = experiment: Dose required to cure 50% of Staphylococcus aureus infected mice when administered orally; value ranges from 1.4-3.8; settings: po
Mus musculus [23] = experiment: Dose required to cure 50% of Staphylococcus aureus infected mice when administered orally; value ranges from 2.9-8.5; settings: po
Mus musculus [24] = experiment: Dose(orally administered) required to cure 50% of Staphylococcus aureus infected mice; settings: po

Compound	MIC (Enterococcus faecalis) [µg/mL]	MIC (Haemophilus influenzae) [µg/mL]	MIC (Moraxella catarrhalis) [µg/mL]	MIC (Streptococcus pneumoniae) [µg/mL]	MIC [1] [µg/mL]	MIC (Staphylococcus aureus [2]) [µg/mL]	MIC (Staphylococcus aureus [3]) [µg/mL]	further results
CO/N=C/c1cn(-c2ccc(N3C[C@H](CNC(C)=O)OC3=O)cc2F)nn1	4 (≈ 10.6 µM)	> 16	16 (≈ 42.5 µM)	0.5 (≈ 1.33 µM)	1 (≈ 2.66 µM)	2 (≈ 5.31 µM)	4 (≈ 10.6 µM)	ED50 (Mus musculus [4]): 3.8 mg/kg/day; ED50 (Mus musculus [5]): 8.6 mg/kg/day
COC(=O)c1cn(-c2ccc(N3C[C@H](CNC(C)=O)OC3=O)cc2F)nn1	4 (≈ 10.6 µM)	> 16	16 (≈ 42.4 µM)	1 (≈ 2.65 µM)	2 (≈ 5.3 µM)	4 (≈ 10.6 µM)	4 (≈ 10.6 µM)	ED50 (Mus musculus [6]): > 20 mg/kg/day; ED50 (Mus musculus [7]): 15.3 mg/kg/day
CC(=O)NC[C@H]1CN(c2ccc(-n3cccc3)c(F)c2)C(=O)O1	1 (≈ 3.15 µM)	4 (≈ 12.6 µM)	2 (≈ 6.3 µM)	≤ 0.5	≤ 0.5	1 (≈ 3.15 µM)	1 (≈ 3.15 µM)	ED50 (Mus musculus [8]): 2.7 mg/kg/day; ED50 (Mus musculus [9]): 13.2 mg/kg/day
CC(=O)NC[C@H]1CN(c2ccc(-n3cc(/C(C)=N\O)nn3)c(F)c2)C(=O)O1	8 (≈ 21.3 µM)	16 (≈ 42.5 µM)	4 (≈ 10.6 µM)	0.5 (≈ 1.33 µM)	2 (≈ 5.31 µM)	4 (≈ 10.6 µM)	4 (≈ 10.6 µM)	–
CC(=O)NC[C@H]1CN(c2ccc(-n3ccc(/C(C)=N\O)c3)c(F)c2)C(=O)O1	1 (≈ 2.67 µM)	8 (≈ 21.4 µM)	2 (≈ 5.34 µM)	0.25 (≈ 0.668 µM)	0.5 (≈ 1.34 µM)	1 (≈ 2.67 µM)	2 (≈ 5.34 µM)	ED50 (Mus musculus [6]): 15 mg/kg/day; ED50 (Mus musculus [10]): 10 mg/kg/day
CC(=O)NC[C@H]1CN(c2ccc(-n3cnnn3)c(F)c2)C(=O)O1	2 (≈ 6.24 µM)	16 (≈ 50 µM)	16 (≈ 50 µM)	1 (≈ 3.12 µM)	2 (≈ 6.24 µM)	2 (≈ 6.24 µM)	4 (≈ 12.5 µM)	ED50 (Mus musculus [11]): > 20 mg/kg/day; ED50 (Mus musculus [12]): 7.8 mg/kg/day
CC(=O)NC[C@H]1CN(c2ccc(-n3cc(C(C)=O)nn3)c(F)c2)C(=O)O1	2 (≈ 5.54 µM)	8 (≈ 22.1 µM)	8 (≈ 22.1 µM)	0.5 (≈ 1.38 µM)	1 (≈ 2.77 µM)	1 (≈ 2.77 µM)	1 (≈ 2.77 µM)	ED50 (Mus musculus [13]): 4.4 mg/kg/day; ED50 (Mus musculus [14]): 8.8 mg/kg/day
CO/N=C\c1ccn(-c2ccc(N3C[C@H](CNC(C)=O)OC3=O)cc2F)c1	1 (≈ 2.67 µM)	16 (≈ 42.7 µM)	16 (≈ 42.7 µM)	0.25 (≈ 0.668 µM)	0.5 (≈ 1.34 µM)	1 (≈ 2.67 µM)	1 (≈ 2.67 µM)	ED50 (Mus musculus [15]): 7.3 mg/kg/day; ED50 (Mus musculus [16]): 3.5 mg/kg/day
CC(=O)NC[C@H]1CN(c2ccc(-n3ccnc3)c(F)c2)C(=O)O1	2 (≈ 6.28 µM)	8 (≈ 25.1 µM)	4 (≈ 12.6 µM)	≤ 0.5	≤ 0.5	1 (≈ 3.14 µM)	2 (≈ 6.28 µM)	ED50 (Mus musculus [17]): 2.2 mg/kg/day; ED50 (Mus musculus [18]): 9.5 mg/kg/day
CC(=O)NC[C@H]1CN(c2ccc(-n3ccc(CCCNS(C)(=O)=O)c3)c(F)c2)C(=O)O1	2 (≈ 4.42 µM)	> 16	8 (≈ 17.7 µM)	0.5 (≈ 1.1 µM)	2 (≈ 4.42 µM)	4 (≈ 8.84 µM)	8 (≈ 17.7 µM)	ED50 (Mus musculus [19]): 1.8 mg/kg/day; ED50 (Mus musculus [20]): > 20 mg/kg/day
CC(=O)NC[C@H]1CN(c2ccc(N3CCN(C(=O)CO)CC3)c(F)c2)C(=O)O1 [EPEREZOLID]	–	–	–	–	–	–	–	ED50 (Mus musculus [21]): 3.9 mg/kg/day; ED50 (Mus musculus [22]): 1.9 mg/kg/day
CC(=O)NC[C@H]1CN(c2ccc(N3CCOCC3)c(F)c2)C(=O)O1 [LINEZOLID]	–	–	–	–	–	–	–	ED50 (Mus musculus [21]): 3.9 mg/kg/day; ED50 (Mus musculus [23]): 5.6 mg/kg/day
CN[C@H](CC(C)C)C(=O)N[C@H]1C(=O)N[C@@H](CC(N)=O)C(=O)N[C@H]2C(=O)N[C@H]3C(=O)N[C@H](C(=O)N[C@H](C(=O)O)c4cc(O)cc(O)c4-c4cc3ccc4O)[C@H](O)c3ccc(c(Cl)c3)Oc3cc2cc(c3O[C@@H]2O[C@H](CO)[C@@H](O)[C@H](O)[C@H]2O[C@H]2C[C@](C)(N)[C@H](O)[C@H](C)O2)Oc2ccc(cc2Cl)[C@H]1O [VANCOMYCIN]	–	–	–	–	–	–	–	ED50 (Mus musculus [24]): 3.9 mg/kg/day
